# Test results taken from ChEMBL document CHEMBL1201862, “PubChem BioAssay data set” (2004).
#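 The compound was tested at five concentrations on cells cultured in 96-well plates, with a 48-hour exposure period. GI50: concentration for 50% inhibition of growth.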 Activity calls are given as the source filed them. Cut-off read from the data, not from the text of the source: active = GI50 up to about 1.1 µM and inactive = higher.
# Key:
# Experiment in all cases: NCI-60 cell line screen, 48 h
# [1] = tested on: A498
# [2] = tested on: A549
# [3] = tested on: CAKI-1
# [4] = tested on: CCRF-CEM
# [5] = tested on: COLO 205
# [6] = tested on: DLD-1
# [7] = tested on: DMS-114
# [8] = tested on: DMS-273
# [9] = tested on: EKVX
# [10] = tested on: HCC 2998
# [11] = tested on: HCT-116
# [12] = tested on: HCT-15
# [13] = tested on: HL-60
# [14] = tested on: HOP-18
# [15] = tested on: HOP-62
# [16] = tested on: HOP-92
# [17] = tested on: HT-29
# [18] = tested on: IGROV-1
# [19] = tested on: K562
# [20] = tested on: KM-20L2
# [21] = tested on: KM12
# [22] = tested on: LOX IMVI
# [23] = tested on: M19-MEL
# [24] = tested on: MCF7
# [25] = tested on: MOLT-4
# [26] = tested on: Malme-3M
# [27] = tested on: NCI-H226
# [28] = tested on: NCI-H23
# [29] = tested on: NCI-H460
# [30] = tested on: NCI-H522
# [31] = tested on: NCI/ADR-RES
# [32] = tested on: OVCAR-3
# [33] = tested on: OVCAR-4
# [34] = tested on: OVCAR-5
# [35] = tested on: OVCAR-8
# [36] = tested on: RPMI-8226
# [37] = tested on: RXF 393
# [38] = tested on: SF-268
# [39] = tested on: SF-295
# [40] = tested on: SF-539
# [41] = tested on: SK-MEL-28
# [42] = tested on: SK-MEL-2
# [43] = tested on: SK-MEL-5
# [44] = tested on: SK-OV-3
# [45] = tested on: SN12C
# [46] = tested on: SNB-19
# [47] = tested on: SNB-75
# [48] = tested on: SNB-78
# [49] = tested on: SW-620
# [50] = tested on: U-251
# [51] = tested on: UACC-257
# [52] = tested on: UACC-62
# [53] = tested on: UO-31
# [54] = tested on: XF498
structure (smiles),measurement,setting,value
COC1=CC(=O)c2c(c(O)c3oc4cc(OC)cc(C)c4c(=O)c3c2O)C1=O [BIKAVERIN],GI50,[1],1370 nM (inactive)
same,GI50,[2],1600 nM (inactive)
same,GI50,[3],195 nM (active)
same,GI50,[4],741 nM (active)
same,GI50,[5],20300 nM (inactive)
same,GI50,[6],1800 nM (inactive)
same,GI50,[7],462 nM (active)
same,GI50,[8],759 nM (active)
same,GI50,[9],1010 nM (active)
same,GI50,[10],9910 nM (inactive)
same,GI50,[11],1020 nM (active)
same,GI50,[12],1210 nM
same,GI50,[13],386 nM (active)
same,GI50,[14],906 nM (active)
same,GI50,[15],1100 nM (active)
same,GI50,[16],578 nM (active)
same,GI50,[17],19400 nM (inactive)
same,GI50,[18],1080 nM (active)
same,GI50,[19],719 nM (active)
same,GI50,[20],5940 nM (inactive)
same,GI50,[21],3250 nM (inactive)
same,GI50,[22],535 nM (active)
same,GI50,[23],908 nM (active)
same,GI50,[24],1690 nM (inactive)
same,GI50,[25],671 nM (active)
same,GI50,[26],1170 nM (inactive)
same,GI50,[27],159 nM (active)
same,GI50,[28],1070 nM (active)
same,GI50,[29],1340 nM (inactive)
same,GI50,[30],716 nM (active)
same,GI50,[31],881 nM (active)
same,GI50,[32],809 nM (active)
same,GI50,[33],1270 nM (inactive)
same,GI50,[34],1970 nM (inactive)
same,GI50,[35],178 nM (active)
same,GI50,[36],1010 nM (active)
same,GI50,[37],912 nM (active)
same,GI50,[38],4460 nM (inactive)
same,GI50,[39],1120 nM (inactive)
same,GI50,[40],1320 nM (inactive)
same,GI50,[41],2030 nM (inactive)
same,GI50,[42],865 nM (active)
same,GI50,[43],1000 nM (active)
same,GI50,[44],1560 nM (inactive)
same,GI50,[45],1560 nM (inactive)
same,GI50,[46],2280 nM (inactive)
same,GI50,[47],1210 nM (inactive)
same,GI50,[48],3410 nM (inactive)
same,GI50,[49],1600 nM (inactive)
same,GI50,[50],879 nM (active)
same,GI50,[51],1200 nM (inactive)
same,GI50,[52],1240 nM (inactive)
same,GI50,[53],1360 nM (inactive)
same,GI50,[54],942 nM (active)
